Target: T1, M3 muscarinic receptor (Homo sapiens, UniProt P20309)
T1 construct: purchased
Experiment: Muscarinic receptor radioligand binding assay ([3H]-NMS)
Conditions: cell membranes expressing the human muscarinic receptors, 3 hours incubation, read-out: binding affinity Ki
Procedure: The inhibitory effects of compounds of the present invention at the M3 muscarinic receptor were determined by the following binding assays:
Radioligand binding studies utilising [^3H]-N-methyl scopolamine ([^3H]-NMS) and commercially available cell membranes expressing the human muscarinic receptors (M2 and M3) were used to assess the affinity of muscarinic antagonists for M2 and M3 receptors. Membranes in TRIS buffer were incubated in 96-well plates with [^3H]-NMS and M3 antagonist at various concentrations for 3 hours. Membranes and bound radioligand were then harvested by filtration and allowed to dry overnight. Scintillation fluid was then added and the bound radioligand counted using a Can berra Packard Topcount scintillation counter

T1 sequence (P20309 whole entry): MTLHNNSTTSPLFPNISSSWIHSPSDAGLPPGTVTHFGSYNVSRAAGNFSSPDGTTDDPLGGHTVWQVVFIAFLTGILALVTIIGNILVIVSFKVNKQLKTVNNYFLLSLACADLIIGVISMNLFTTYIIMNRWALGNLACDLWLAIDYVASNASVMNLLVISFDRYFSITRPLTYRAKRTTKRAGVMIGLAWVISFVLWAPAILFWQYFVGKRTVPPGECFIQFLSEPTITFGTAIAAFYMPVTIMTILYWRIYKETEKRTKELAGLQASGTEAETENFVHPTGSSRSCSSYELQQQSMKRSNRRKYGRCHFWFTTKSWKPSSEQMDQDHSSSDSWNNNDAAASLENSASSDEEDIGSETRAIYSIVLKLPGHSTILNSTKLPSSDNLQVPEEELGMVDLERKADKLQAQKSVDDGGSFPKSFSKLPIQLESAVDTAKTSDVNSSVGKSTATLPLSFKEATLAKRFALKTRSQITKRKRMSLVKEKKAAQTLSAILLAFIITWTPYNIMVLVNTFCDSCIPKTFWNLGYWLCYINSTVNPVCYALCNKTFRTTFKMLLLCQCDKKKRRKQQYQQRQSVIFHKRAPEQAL

Ki: < 100 nM
SMILES: C[N+](C)(CCCc1ccccc1)C1CC2CCC1C2OCc1ccccc1 [Example 6, Anti (1S, 2S) (7-benzyloxybi-cyclo[2.2.1]hept-2-yl)-dimethyl-(3-phenyl-propyl)-ammonium bromide]

From US20090182033A1, “Cyclic Amine Derivatives and Their Uses” (ARGENTA DISCOVERY LTD., priority 2005, published 2009)
